2-AG accumulation, % of vehicle control, Kd and IC50 data for 28 compounds are collected here from patent publication US8362000B2, “Azetidinyl diamides as monoacylglycerol lipase inhibitors” (Janssen Pharmaceutica NV, priority 2009, dated 2013).

Where a chain is given by its changes, count along the chain named. Like-named read-outs stand apart in the source and are kept apart here.

One test addresses T1, MGL (Rattus norvegicus, UniProt Q8R431).
T1 construct: one g rat brain was homogenized using a Polytron homogenizer; from tissue; host or cells: rat brain homogenate
T1 sequence (Q8R431 1-303): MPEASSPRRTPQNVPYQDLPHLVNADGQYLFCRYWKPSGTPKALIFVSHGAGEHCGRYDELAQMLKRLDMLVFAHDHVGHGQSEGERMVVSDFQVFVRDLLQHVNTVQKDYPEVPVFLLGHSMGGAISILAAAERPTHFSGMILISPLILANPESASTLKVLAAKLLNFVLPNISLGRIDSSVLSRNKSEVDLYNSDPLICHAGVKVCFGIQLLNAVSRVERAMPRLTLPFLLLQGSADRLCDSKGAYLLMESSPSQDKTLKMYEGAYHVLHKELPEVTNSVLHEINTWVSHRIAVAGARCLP
Put plainly: 2-AG accumulation assay in rat brain homogenate. In kind it is biochemical. As to conditions: rat brain homogenate; compound 1 μM; 2-AG accumulation as percent of vehicle; read-out: Rat Brain 2AG % VehCntrl (%) @ 1 μM.

The target of a further test is T2, mutant MGL (Homo sapiens, UniProt Q99685, L169S/L176S).
T2 sequence (Q99685 1-303 L169S/L176S): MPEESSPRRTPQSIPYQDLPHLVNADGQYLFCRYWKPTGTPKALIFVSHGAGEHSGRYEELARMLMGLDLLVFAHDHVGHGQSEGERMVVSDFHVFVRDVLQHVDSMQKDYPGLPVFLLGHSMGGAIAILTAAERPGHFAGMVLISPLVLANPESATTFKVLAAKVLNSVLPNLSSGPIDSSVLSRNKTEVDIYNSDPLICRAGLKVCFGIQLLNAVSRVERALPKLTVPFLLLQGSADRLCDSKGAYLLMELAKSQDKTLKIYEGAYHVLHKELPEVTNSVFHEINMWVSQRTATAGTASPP
Put plainly: MGL ThermoFluor assay - mutant. The format is binding. Background: In DSF a fluorescence change marks the thermal transition of the protein.

Test [1] concerns the target T3, purified wild type MGL (wt-MGLL 6H-11-313) (Homo sapiens, UniProt Q99685).
T3 sequence (Q99685 1-303): T2 sequence (Q99685 1-303 L169S/L176S) with S169L, S176L

[2] abbreviates: ThermoFluor concentration-response, read-out: MGL mutant ThermoFluor Kd.
The mark [3] stands for this setting: ThermoFluor thermal stability binding assay, read-out: MGL mutant ThermoFluor Kd.
Setting [4] is: ThermoFluor, compound concentration measured by qNMR, read-out: MGL mutant ThermoFluor qKd (μM) (using qNMR conc.).

As usually defined, the IC50 is the point on the concentration scale where inhibition reaches its midpoint. A lower IC50 goes with higher potency. For the compound `CC(C)(C)c1ccc(C(=O)N2CC(N3CCN(C(=O)c4nccs4)CC3)C2)cc1` [Cpd 672], the 2-AG accumulation, % of vehicle control at 1 µM at MGL stood at 268%. The Kd on mutant MGL (setting [2]) stood at 0.016 µM. In test [1], this compound had an IC50 of 17 nM.
Take `O=C(c1ccc(OC(F)(F)F)c(Cl)c1)N1CC(N2CCN(C(=O)c3nccs3)CC2)C1` [Cpd 693]: at MGL, the 2-AG accumulation, % of vehicle control at 1 µM is 299%. Also, on mutant MGL (setting [2]), the Kd came out at 0.06 µM. This compound also registered an IC50 in test [1] of 47 nM.
With `CCCCCc1ccc(C(=O)N2CC(N3CCN(C(=O)c4nccs4)CC3)C2)cc1` [Cpd 893], the 2-AG accumulation, % of vehicle control at 1 µM on MGL amounted to 626%. Also, on mutant MGL (setting [2]), the Kd came to 0.005 µM. Moreover, the IC50 in test [1] was less than 5 nM.
As for `O=C(c1ccccc1)N1CCN(C2CN(C(=O)c3cc4c(C(F)(F)F)cccc4s3)C2)CC1` [Cpd 330, 1-(Phenylcarbonyl)-4-(1-{[4-(trifluoromethyl)-1-benzothiophen-2-yl]carbonyl}azetidin-3-yl)piperazine], at MGL, the 2-AG accumulation, % of vehicle control at 1 µM was determined as 197%. At mutant MGL (setting [3]), the Kd is 0.438 µM. The IC50 in test [1] worked out at 308 nM.
For the compound `O=C(c1nccs1)N1CCN(C2CN(C(=O)c3cccc(-c4ccccc4)c3F)C2)CC1` [Cpd 1172], at MGL, the 2-AG accumulation, % of vehicle control at 1 µM was 931%. Besides, the Kd at mutant MGL (setting [2]) was found to be 0.178 µM. The same compound displayed an IC50 in test [1] of 63 nM.
On to `Cc1cc(-c2ccc(Cl)c(C(F)(F)F)c2)ccc1C(=O)N1CC(N2CCN(C(=O)c3ccccc3)CC2)C1` [Cpd 256, 1-(1-{[4′-Chloro-3-methyl-3′-(trifluoromethyl)biphenyl-4-yl]carbonyl}azetidin-3-yl)-4-(phenylcarbonyl)piperazine], for which, on MGL, the 2-AG accumulation, % of vehicle control at 1 µM was found to be 157%. The Kd on mutant MGL (setting [3]) was found to be 0.0333 µM. In test [1], this compound returned an IC50 of 13.4 nM.
Regarding `Cc1sc(C(=O)N2CC(N3CCN(C(=O)c4nccs4)CC3)C2)cc1-c1cccc(C(F)(F)F)c1` [Cpd 1351], the 2-AG accumulation, % of vehicle control at 1 µM at MGL is 718%. Further, the Kd at mutant MGL (setting [4]) came out at 0.043 µM. In test [1], this compound displayed an IC50 of less than 5 nM.
Regarding `Cc1ccc2sc(C(=O)N3CC(N4CCN(C(=O)c5nccs5)CC4)C3)c(C(F)(F)F)c2c1` [Cpd 691, 1-(1-{[5-Methyl-3-(trifluoromethyl)-1-benzothiophen-2-yl]carbonyl}azetidin-3-yl)-4-(1,3-thiazol-2-ylcarbonyl)piperazine], the 2-AG accumulation, % of vehicle control at 1 µM on MGL was 840%. Also, the Kd at mutant MGL (setting [2]) was 0.004 µM. The compound also gave an IC50 in test [1] of 46 nM.
Take `O=C(c1ccc2cc(-c3ccccc3)[nH]c2c1)N1CC(N2CCN(C(=O)c3nccs3)CC2)C1` [Cpd 1333]: the 2-AG accumulation, % of vehicle control at 1 µM on MGL worked out at 824%. Also, the Kd on mutant MGL (ThermoFluor, compound concentration measured by qNMR, read-out: MGL mutant ThermoFluor qKd (using qNMR conc.)) worked out at 0.04 µM. In test [1], this compound yielded an IC50 of less than 5 nM.
Turning to `O=C(c1ccc2c(ccn2-c2ccc(F)cc2)n1)N1CC(N2CCN(C(=O)c3nccs3)CC2)C1` [Cpd 1153], on MGL, the 2-AG accumulation, % of vehicle control at 1 µM amounted to 404%. Moreover, the Kd at mutant MGL (setting [4]) is 0.004 µM. Also, inhibition in test [1] was half-maximal at 39 nM (IC50).
Turning to `O=C(c1ccccc1)N1CCN(C2CN(C(=O)c3ccc(Cc4ccc(C(F)(F)F)cc4)cc3)C2)CC1` [Cpd 771], the 2-AG accumulation, % of vehicle control at 1 µM on MGL was found to be 465%. The Kd at mutant MGL (setting [2]) was determined as 0.05 µM. The compound also came in with an IC50 in test [1] of 7 nM.
Take `O=C(c1cc(F)cc(-c2ccccc2)c1)N1CC(N2CCN(C(=O)c3nccs3)CC2)C1` [Cpd 1104, 1-{1-[(5-Fluorobiphenyl-3-yl)carbonyl]azetidin-3-yl}-4-(1,3-thiazol-2-ylcarbonyl)piperazine]: the 2-AG accumulation, % of vehicle control at 1 µM at MGL came to 334%. At mutant MGL (setting [2]), the Kd is 0.199 µM. The IC50 in test [1] came to 13 nM.
Consider `O=C(c1ccc(OCc2cncc(Cl)c2)cc1)N1CC(N2CCN(C(=O)c3nccs3)CC2)C1` [Cpd 978], for which the 2-AG accumulation, % of vehicle control at 1 µM on MGL is 570%. In addition, the Kd at mutant MGL (setting [3]) worked out at 0.066 µM. The same compound gave an IC50 in test [1] of 7 nM.
Regarding `CCC(C)(C)c1ccc(C(=O)N2CC(N3CCN(C(=O)c4nccs4)CC3)C2)cc1` [Cpd 887], the 2-AG accumulation, % of vehicle control at 1 µM at MGL amounted to 270%. The Kd on mutant MGL (setting [2]) was found to be 0.009 µM. The IC50 in test [1] was less than 5 nM.
The matching figures for `Cc1c(C(=O)N2CC(N3CCN(C(=O)c4ccccc4)CC3)C2)sc2cc(C(F)(F)F)ccc12` [Cpd 505]: 236%, 0.01 µM and 39 nM.
The matching figures for `O=C(c1ccccc1)N1CCN(C2CN(C(=O)c3ccc(Oc4cccc(C(F)(F)F)c4)cc3)C2)CC1` [Cpd 419, 1-(Phenylcarbonyl)-4-[1-({4-[3-(trifluoromethyl)phenoxy]phenyl}carbonyl)azetidin-3-yl]piperazine]: 109%, 0.123 µM and 170 nM.
As to `Cc1cn(-c2ccccc2)c2ccc(C(=O)N3CC(N4CCN(C(=O)c5ccccc5)CC4)C3)cc12` [Cpd 577], at MGL, the 2-AG accumulation, % of vehicle control at 1 µM was 207%. Moreover, the Kd at mutant MGL (setting [4]) came out at 0.026 µM. The IC50 in test [1] is 52 nM.
`O=C(c1ccc(-c2nc(-c3ccccc3)cs2)cc1)N1CC(N2CCN(C(=O)c3nccs3)CC2)C1` [Cpd 1326]: the 2-AG accumulation, % of vehicle control at 1 µM at MGL worked out at 944%. Besides, the Kd on mutant MGL (setting [2]) stood at 0.004 µM. The half-maximal inhibitory concentration (IC50) in test [1] was less than 5 nM.
Regarding `COc1ccc(C(=O)N2CC(N3CCN(C(=O)c4cscn4)CC3)C2)cc1-c1ccccc1` [Cpd 1265], the 2-AG accumulation, % of vehicle control at 1 µM at MGL is 192%. Besides, the Kd on mutant MGL (setting [2]) is 0.66 µM. The same compound had an IC50 in test [1] of 1050 nM.
On to `O=C(c1ccc(-c2ccc(C(F)(F)F)s2)cc1)N1CC(N2CCN(C(=O)c3cscn3)CC2)C1` [Cpd 1071, 1-(1,3-Thiazol-4-ylcarbonyl)-4-[1-({4-[5-(trifluoromethyl)thiophen-2-yl]phenyl}carbonyl)azetidin-3-yl]piperazine], for which the 2-AG accumulation, % of vehicle control at 1 µM at MGL stood at 552%. Besides, at mutant MGL (setting [2]), the Kd stood at 0.025 µM. The same compound registered an IC50 in test [1] of 8 nM.
In the case of `CCCCCCCc1ccc(C(=O)N2CC(N3CCN(C(=O)c4nccs4)CC3)C2)cc1` [Cpd 892], on MGL, the 2-AG accumulation, % of vehicle control at 1 µM came to 948%. Also, the Kd at mutant MGL (setting [2]) stood at 0.007 µM. The compound also returned an IC50 in test [1] of less than 5 nM.
Regarding `O=C(c1cscn1)N1CCN(C2CN(C(=O)c3sc4cc(Cl)ccc4c3C(F)(F)F)C2)CC1` [Cpd 699], the 2-AG accumulation, % of vehicle control at 1 µM on MGL was 253%. On mutant MGL (setting [2]), the Kd is 0.041 µM. The same compound showed an IC50 in test [1] of 69 nM.
For the compound `Cc1cn(-c2cccc(OC(F)(F)F)c2)c2ccc(C(=O)N3CC(N4CCN(C(=O)c5nccs5)CC4)C3)cc12` [Cpd 1068], the 2-AG accumulation, % of vehicle control at 1 µM on MGL is 849%. The Kd at mutant MGL (setting [4]) is 0.002 µM. In addition, in test [1], inhibition was half-maximal at 7 nM (IC50).
Take `O=C(c1ccccc1)N1CCN(C2CN(C(=O)c3ccc(Cc4cccc(C(F)(F)F)c4)cc3)C2)CC1` [Cpd 547]: the 2-AG accumulation, % of vehicle control at 1 µM on MGL was 652%. Moreover, on mutant MGL (setting [2]), the Kd was 0.072 µM. This compound displayed an IC50 in test [1] of less than 5 nM.
For `Cc1cc(C(=O)N2CCN(C3CN(C(=O)c4ccc(-c5ccccc5)cc4)C3)CC2)no1` [Cpd 1465], on MGL, the 2-AG accumulation, % of vehicle control at 1 µM was found to be 110%. The Kd at mutant MGL (setting [3]) is greater than 31.2 µM. In test [1], the IC50 was greater than 16700 nM.
In the case of `O=C(c1cc(F)c2c(ccn2-c2ccc(F)cc2)c1)N1CC(N2CCN(C(=O)c3nccs3)CC2)C1` [Cpd 1350, 7-Fluoro-1-(4-fluorophenyl)-5-({3-[4-(1,3-thiazol-2-ylcarbonyl)piperazin-1-yl]azetidin-1-yl}carbonyl)-1H-indole], the 2-AG accumulation, % of vehicle control at 1 µM on MGL is 873%. In addition, the Kd on mutant MGL (compound concentration measured by qNMR, read-out: MGL mutant ThermoFluor qKd (using qNMR conc.)) stood at 0.001 µM. Moreover, the IC50 in test [1] was less than 5 nM.
With `Cc1c(C(=O)N2CC(N3CCN(C(=O)c4nccs4)CC3)C2)sc2ccc(-c3ccccc3)cc12` [Cpd 1346, 1-{1-[(3-Methyl-5-phenyl-1-benzothiophen-2-yl)carbonyl]azetidin-3-yl}-4-(1,3-thiazol-2-ylcarbonyl)piperazine], at MGL, the 2-AG accumulation, % of vehicle control at 1 µM is 406%. The Kd at mutant MGL (setting [2]) turned out to be 0.002 µM. The compound further showed an IC50 in test [1] of less than 5 nM.
Regarding `O=C(c1ccc(-c2ccc(Br)cc2)cc1)N1CC(N2CCN(C(=O)c3cscn3)CC2)C1` [Cpd 172, 1-{1-[(4′-Bromobiphenyl-4-yl)carbonyl]azetidin-3-yl}-4-(1,3-thiazol-4-ylcarbonyl)piperazine], at MGL, the 2-AG accumulation, % of vehicle control at 1 µM was 217%. At mutant MGL (setting [2]), the Kd is 0.1 µM. Besides, in test [1], the midpoint of inhibition, the IC50, lay at 7.3 nM.
